Here are results for 25 compounds from patent US11173146B2, “Selective activators of the intermediate conductance CA2+activated K+ channel KCa3.1 and their methods of use” (The Regents of the University of California, priority 2014, dated 2021).

“Also recorded” adds a separate entry of the source. Read-outs that look alike come from different tables or passages of the source. Where only a bound is given, the exact number is not on record here.

One data set deals with KCa2.1 (Homo sapiens, UniProt Q92952). To be noted: literature, cited from earlier work.
In data set [1] the target is T1, KCa3.1 (Homo sapiens, UniProt O15554+P0DP23). To be noted: literature; cited from earlier work.
Data set [2] concerns the target T1, KCa3.1. The data set can be described thus: Whole-cell patch-clamp KCa3.1 activation (QPatch, HEK-293). Format: cell-based. Set-up: host or cells: HEK-293. To be noted: for effect of structural change on KCa2.3 and KCa3.1 activation compared with SKA-31: SAR, FIG. 2; for reduction of potency compared with SKA-31: KCa3.1. The text has this:
(§1) Cells, Cell lines and Clones. […] The cloning of hKCa2.3 (19 CAG repeats) and hKCa3.1 has been previously described (Wulff et al., 2000). The hKCa2.3 clone was later stably expressed in COS-7 cells at Aurora Biosciences Corp., San Diego, Calif. Cell lines stably expressing other mammalian ion channels were gifts from several sources: hKCa1.1 in HEK-293 cells (Andrew Tinker, University College London); hKV2.1 in HEK293 cells (James Trimmer, UC Davis); KV11.1 (HERG) in HEK-293 cells (Craig January, University of Wisconsin, Madison); hNaV1.4 in HEK-293 cells (Frank Lehmann-Horn, University of Ulm, Germany), hNaV1.5 in HEK-293 cells (Christopher Lossin, University of California Davis), and hCaV1.2 in HEK-293 cells (Franz Hofmann, Munich, Germany).
(§2) Electrophysiology. Experiments were conducted either manually with an EPC-10 amplifier (HEKA, Lambrecht/Pfalz, Germany) or on a QPatch-16 automated electrophysiology platform (Sophion Biosciences, Denmark). […] Patch pipettes were pulled from soda lime glass (micro-hematocrit tubes, Kimble Chase, Rochester, N.Y.) and had resistances of 2-3 MΩ. […] Free Ca^2+ concentrations were calculated with MaxChelator assuming a temperature of 25° C., a pH of 7.2 and an ionic strength of 160 mM. […] Na^+ aspartate Ringer was used as an external solution (in mM): 160 Na^+ aspartate, 4.5 KCl, 2 CaCl2, 1 MgCl2, 5 HEPES, pH 7.4, 290-310 mOsm. […] Reduction of both peak and tail current by the drug was determined. NaV1.7 currents were recorded with 30 ms pulses from −90 mV to −10 mV every 10 sec with a CsF-based pipette solution and normal Ringer as an external solution. CaV1.2 currents were elicited by 100-ms depolarizing pulses from −80 to 20 mV every 10 sec with a CsCl-based pipette solution and an external solution containing 30 mM BaCl2. Blockade of both Na^+ and Ca^2+ currents was determined as reduction of the current minimum.
For automated electrophysiology experiments cells were grown to ˜70% confluency, rinsed in sterile PBS containing 0.02% EDTA, and lifted with 2 mL of TrypLE™ Express (Gibco, Grand Island, N.Y.) for ˜2 min. When cells were rounded but not detached, they were dislodged by gentle tapping, suspended in DMEM, centrifuged and resuspended in 1 ml of external solution, placed into the Qfuge tube and resuspended in 150-200 μL extracellular solution after one additional spin on the QPatch. Whole-cell patch-clamp experiments were then carried out using disposable 16-channel planar patch chip plates (QPlates; patch hole diameter approximately 1 μm, resistance 2.00±0.02 MΩ). […] In order to avoid rejection of cells with large KCa3.1 currents the minimum seal resistance for whole-cell requirement was lowered to 0.001 GΩ. […] Following establishment of the whole-cell configuration, cells were held at −80 mV and KCa3.1, KCa2.1 or KCa2.2 currents elicited by a voltage protocol that held at −80 mV for 20 ms, stepped to −120 mV for 20 ms, ramped from −120 to 40 mV in 200 ms and then stepped back to −120 mV for 20 ms. This pulse protocol was applied every 10 s. […] NaV1.2 currents from N1E-115 cells, NaV1.4 and NaV1.5 currents from stably transfected HEK cells were recorded with 20 ms pulses from −90 mV to 0 mV every 10 sec with a KF-based internal solution and normal Ringer as an external solution. Current slopes (in ampere per sec) were measured using the SophionQPatch software and exported to Microsoft Excel and Origin 7.0 (OriginLab Corp. MA) for analysis. […] Data fitting to the Hill equation to obtain EC50 and IC50 values was performed with Origin 7.0. Data are expressed as mean±SD.

The next data set concerns the target T2, human KCa2.3 (Homo sapiens, UniProt Q9UGI6).
T2 construct: The cloning of hKCa2.3 (19 CAG repeats) and hKCa3.1 has been previously described (Wulff et al., 2000)
The data set can be described thus: Manual whole-cell patch-clamp KCa2.3 activation (COS-7). The data set is classed as cell-based.
From the text: as §1, §2
For all electrophysiology experiments solutions of benzothiazoles and benzooxazoles were always freshly prepared from 1 mM or 10 mM stock solutions in DMSO during the experiment. The final DMSO concentration never exceeded 1%. For automated assays glass vial inserts (Sophion Biosciences, Denmark) were filled with 350-400 μL of compound solution and placed into the glass insert base plate for use in the QPatch assay right before starting the QPatch.
The compounds synthesized by these methods as well as five commercially available compounds were tested for their KCa2.3 and KCa3.1 activating activity using either manual or automated whole-cell patch-clamp. Our group previously described the establishment of a QPatch assay for KCa3.1 modulators. […] We here made use of this assay and determined EC50 values for KCa3.1 activation using HEK-293 cells stably expressing human KCa3.1. Activities on human KCa2.3 were determined by manual electrophysioiogy since we currently only have KCa2.3 available in COS-7 cells, which are difficult to handle on the QPatch.
Background: The patch-clamp technique gives a direct electrical read-out from membranes.

In data set [3] the test system is porcine coronary arteries. Kind of data set: Isometric myography on porcine coronary arteries, bradykinin-induced EDH-type relaxation. To be noted: blocker 1 μM.
From the text: Isometric Myography on Porcine Coronary Arteries (PCA). PCA were carefully dissected from hearts kindly provided by the local abattoir (Mercazaragoza, Zaragoza, Spain), cleaned of fat and connective tissue, and cut into 3-4 mm rings. Rings were mounted on hooks connected to an isometric force transducer (Pioden UF1, Graham Bell House, Canterbury, UK) and were pre-stretched to an initial tension of 1 g. […] Changes in tension were registered using a Mac Lab System/8e program (AD Instruments Inc., Milford, Mass.). The buffer contained the NO-synthase blocker, Nω-nitro-L-arginine (L-NNA, 300 μM), and the cyclooxygenase blocker indomethacin (10 μM) in order to measure EDH-type relaxation. […] After washout, rings were contracted with a high KCl buffer (60 mM) to determine maximal contraction. […] UCL1684 and U46619 were purchased from Tocris (Wiesbaden-Nordenstadt, Germany). Data analysis: EDH-type relaxations were determined as % change of U46619 contraction and are shown relative to the totally relaxed state (w/o U46619).
Where [4] appears, read: 250 nM free Ca2+, read-out: EC50 for KCa2.3 activation.
Where [5] appears, read: 250 nM free Ca2+, read-out: EC50 for KCa3.1 activation.
The mark [6] stands for this setting: Appendix A, read-out: KCa3.1 EC50 (converted).
Setting [7] is: Appendix A, read-out: KCa2.3 EC50.

What is called melting point is the temperature, or range, at which the solid turns liquid. What is called EC50 is the concentration that produces a half-maximal response.

T2 sequence (Q9UGI6 with tags, fused parts or gaps DUP76-80): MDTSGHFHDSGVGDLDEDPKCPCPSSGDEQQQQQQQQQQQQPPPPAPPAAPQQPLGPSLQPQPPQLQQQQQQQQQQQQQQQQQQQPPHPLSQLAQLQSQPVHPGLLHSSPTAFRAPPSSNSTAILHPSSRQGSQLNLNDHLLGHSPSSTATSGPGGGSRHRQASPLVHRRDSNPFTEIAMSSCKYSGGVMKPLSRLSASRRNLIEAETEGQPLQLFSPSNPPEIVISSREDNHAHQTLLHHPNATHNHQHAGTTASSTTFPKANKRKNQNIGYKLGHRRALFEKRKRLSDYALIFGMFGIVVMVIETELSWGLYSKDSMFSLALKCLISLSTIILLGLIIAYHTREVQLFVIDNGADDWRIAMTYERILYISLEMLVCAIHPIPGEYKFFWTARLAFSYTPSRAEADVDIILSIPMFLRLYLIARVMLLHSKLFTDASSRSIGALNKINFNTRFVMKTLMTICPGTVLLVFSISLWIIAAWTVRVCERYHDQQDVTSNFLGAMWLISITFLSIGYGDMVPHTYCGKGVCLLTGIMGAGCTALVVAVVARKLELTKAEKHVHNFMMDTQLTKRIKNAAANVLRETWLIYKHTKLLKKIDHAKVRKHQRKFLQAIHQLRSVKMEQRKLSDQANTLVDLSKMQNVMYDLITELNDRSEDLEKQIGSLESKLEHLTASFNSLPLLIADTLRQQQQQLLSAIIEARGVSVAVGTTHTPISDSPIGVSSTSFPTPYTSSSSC

As to `CON=CNc1nc2nccc(C(C)Oc3ccc(Cl)cc3C)n2n1` (single isomer, unassigned; (-)) [(-)-CM-TMPF, N-{7-[1-(4-chloro-2-methylphenoxy)ethyl]-[1,2,4]triazolo[1,5-a]pyrimidin-2-yl}-N′-methoxy-formamidine], the “KCa2.1 currents increased to % of their maximal activity” value on KCa2.1 (Ca2+ concentrations between 10 and 100 nM) is recorded as “roughly 40%”.
On to `Cc1cc(NC2CCCCC2)nc(-n2nc(C)cc2C)n1` [CyPPA, cyclohexyl-[2-(3,5-dimethyl-pyrazole-1-yl-)6-methyl-pyrimidin-4-yl]-amine], for which the “activity on KCa2.1” value on KCa2.1 was “completely inactive”. For the same compound, at KCa3.1 [1], the “activity on KCa3.1” value was “completely inactive”.
On to `Nc1nc2c(s1)Cc1ccccc1-2` [SKA-69, 8H-Indeno[1,2-d]thiazol-2-amine], for which, at KCa3.1 [2], the “effect of structural change on KCa2.3 and KCa3.1 activation compared with SKA-31” value (“effect of structural change” for short) was “reduced both potency and selectivity”.
Same read-out and setting: then `Nc1nc2c(s1)CCc1ccccc1-2` [SKA-70, 4,5-Dihydronaphtho[1,2-d]thiazol-2-amine], with “reduced both potency and selectivity”.
Regarding `Nc1nc2c(s1)Cc1cc(F)ccc1-2` [SKA-71, 6-Fluoro-8H-indeno[1,2-d]thiazol-2-amine], the melting point was 217 °C (dec.). Besides, the “effect of structural change” value at KCa3.1 [2] was “reduced both potency and selectivity”.
Compound `Nc1nc2c(cc(Cl)c3ccccc32)s1` [SKA-72, 5-Chloronaphtho[1,2-d]thiazol-2-amine] returned a melting point of 253 °C. Moreover, on human KCa2.3 (setting [4]), the EC50 amounted to 335 nM. In addition, on KCa3.1 [2] (setting [5]), the 50% effective concentration (EC50) was determined as 110 nM.
As to `Nc1nc2c(cc3c4c(cccc42)CC3)s1` [SKA-73, 4,5-Dihydroaceoaphtho[5,4-d]thiazol-8-amine], the melting point turned out to be 257 °C. At human KCa2.3 (setting [4]), the half-maximal effective concentration (EC50) is 1000 nM. Moreover, at KCa3.1 [2] (setting [5]), the EC50 stood at 1000 nM.
`Cc1nc2c(ccc3ccccc32)s1` [SKA-74, 2-methylnaphtho[1,2-d]thiazole]: on KCa3.1 [2] (setting [6]), the EC50 is 7800 nM. In addition, at KCa3.1 [2], the “effect of structural change” value is on record as “completely abolished activity”.
As for `Nc1nc(-c2cccc3ccccc23)cs1` [SKA-75, 2-Amino-4-(1-naphthyl)thiazole], at KCa3.1 [2], the “effect of structural change” value is “reduced both potency and selectivity”.
Take `Nc1nc(-c2ccc3ccccc3c2)cs1` [SKA-76, 2-amino-4-(2-naphthyl)thiazole]: at KCa3.1 [2], the “effect of structural change” value was “reduced both potency and selectivity”.
Compound `Nc1nc2c3c(ccc2s1)CCC3` [SKA-81, 7,8-Dihydro-6H-indeno[4,5-d]thiazol-2-amine] displayed a melting point of 195 °C. Further, on KCa3.1 [2], the “effect of structural change” value is listed as “reduction in potency”.
As to `CC1=Nc2c(ccc3ccccc23)C1(C)C` [SKA-92, 2,3,3-trimethyl-3H-benzo[g]indole], the EC50 was above 50000 nM at human KCa2.3 (setting [7]) and 42000 nM on KCa3.1 [2] (setting [6]). Moreover, on KCa3.1 [2], the “effect of structural change” value is listed as “completely abolished activity”.
With `Nc1nc2c(ccc3ccccc32)o1` [SKA-102, Naphtho[1,2-d]oxazol-2-amine], the figures for the EC50 at human KCa2.3 (setting [7]) and on KCa3.1 [2] (setting [5]) were 24000 nM and 2700 nM, respectively.
For `Cc1nc2cc3ccccc3cc2o1` [SKA-104, 2-methylnaphtho[2,3-d]oxazole], the EC50 on KCa3.1 [2] (setting [6]) was above 50000 nM. Also, the “effect of structural change” value on KCa3.1 [2] is listed as “completely abolished activity”.
With `Nc1nc2c(cc(F)c3ccccc32)s1` [SKA-106, 5-Fluoronaphtho[1,2-d]thiazol-2-amme], at KCa3.1 [2], the “reduction of potency compared with SKA-31” value is recorded as “roughly 10 fold”.
`N#Cc1cc2sc(N)nc2c2ccccc12` [SKA-107, 2-Aminonaphtho[1,2-d]thiazole-5-carbonitrile] registered a melting point of 265 °C. In addition, the “effect of structural change” value on KCa3.1 [2] was “reduced potency and selectivity”.
On to `Cc1cc(C)c2c(c1)-c1nc(N)sc1CC2` [SKA-108, 6,8-Dimethyl-4,5-dihydronaphtho[1,2-d]thiazol-2-amine], for which the melting point amounted to 159 °C. In addition, the “effect of structural change” value on KCa3.1 [2] was “reduced both potency and selectivity”.
Compound `Cc1cc(C)c2ccc3sc(N)nc3c2c1` [SKA-109, 6,8-Dimethylnaphtho[1,2-d]thiazol-2-amine] gave a melting point of 157 °C. Also, the “reduction of potency compared with SKA-31” value on KCa3.1 [2] was determined as 10 fold.
For `Nc1nc2c(ccc3sccc32)s1` [SKA-110, Thieno[2′,3′:5,6]benzo[1,2-d]thiazol-2-amine], the melting point turned out to be 161 °C. In addition, the “effect of structural change” value at KCa3.1 [2] is on record as “reduction in potency”.
In the case of `CC1Cc2sc(N)nc2-c2ccccc21` (stereo not shown) [SKA-113, 5-Methyl-4,5-dihydronaphtho[1,2-d]thiazol-2-amine], the melting point was 109 °C (dec.). For the same compound, the “effect of structural change” value at KCa3.1 [2] was “reduced both potency and selectivity”.
Turning to `COc1cccc2c1CCc1sc(N)nc1-2` [SKA-114, 6-Methoxy-4,5-dihydronaphtho[1,2-d]thiazol-2-amine], the melting point turned out to be 200 °C. Further, at KCa3.1 [2], the “effect of structural change” value was “reduced both potency and selectivity”.
In turn, `COc1cc2sc(N)nc2c2ccccc12` [SKA-117, 5-Methoxynaphtho[1,2-d]thiazol-2-amine] came in with a melting point of 213 °C. Also, the “effect of structural change” value on KCa3.1 [2] was “reduced potency and selectivity”.
Consider `Cc1cc2oc(N)nc2c2ccccc12` [SKA-120, 5-Methylnaphtho[1,2-d]oxazol-2-amine], for which the EC50 at KCa3.1 [2] (setting [5]) is 180 nM; on KCa3.1 [2] (setting [6]), 450 nM. The “selectivity for KCa3.1 over KCa2.3” value on KCa3.1 [2] (ratio of EC50 values) is recorded as around 50 fold.
`Clc1ccccc1C(c1ccccc1)(c1ccccc1)n1cccn1` [TRAM-34, 1-[(2-chlorophenyl)diphenylmethyl]-1H-pyrazole, reference compound]: the “effect on the potentiation of BK-induced relaxation by SKA-111/SKA-121” value in data set [3] is listed as “prevented the increase of relaxation; also recorded: prevented this potentiation”.
Consider `c1cc2cc(c1)C[n+]1ccc(c3ccccc31)NCc1ccc(cc1)CNc1cc[n+](c3ccccc13)C2` [UCL1684, 6,10-diaza-3(1,3)8,(1,4)-dibenzena-1,5(1,4)-diquinolinacyclodecaphane, reference compound], for which the “effect on KCa2.3 currents activated by 20 μM SKA-121” value at human KCa2.3 (FIG. 4F) is reported as “had a similar effect”.
